In patent US11827628B2, “Compositions and methods for inhibition of the JAK pathway” (Rigel Pharmaceuticals, Inc., priority 2005, dated 2023):
pIC50: −log10 of the molar value. Where two headings read alike, the source gives them in different places.

Experiments:
[1] = test system: IL-4 stimulated expression of CD23 in human Ramos B cells (JAK-1 and JAK-3); experiment: Assay for Ramos B-Cell Line Stimulated with IL-4 (CD23 upregulation, FACS); format: cell-based; conditions: Ramos B-cell line stimulated with IL-4, CD23 expression by FACS, read-out: IC50, Example 41
Summary of the method: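 Log-phase Ramos cells, 1 h compound pre-incubation at 37 °C; IL-4 50 units/mL final, 20-24 h; CD23-PE stain, FACS; IC50.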

Primary human T-cells = experiment: Primary Human T-Cell Proliferation Assay Stimulated with IL-2 (CellTiter-Glo); format: cell-based; conditions: primary human T-cell proliferation stimulated with IL-2; read-out: IC50, Example 42
Summary of the method: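 IC50 derived from CellTiter-Glo ATP signal after 72 hours of IL-2-driven proliferation at 37° C. Cells: primary human T-cells from blood, stimulated beforehand 3-4 days on anti-CD3/anti-CD28 with IL-2, then rested from IL-2 before compound exposure in duplicate; IL-2-free wells served as unstimulated control.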

SMILES	pIC50 [1]	pIC50 ([1]; sodium salt)	pIC50 (Primary human T-cells)
Cc1cc(Nc2nc(Nc3ccc(C)c(S(N)(=O)=O)c3)ncc2F)ccc1OC(C)C#N (racemic) [Compound I-62, Racemic N2-(3-Aminosulfonyl-4-methyl)phenyl-N4-[4-(1-cyano)ethoxy-3-methyl]phenyl-5-fluoro-2,4-pyrimidinediamine]	7.00	–	6.42
Cc1cnc(Nc2ccc(S(N)(=O)=O)cc2)nc1Nc1ccc(OCC#N)cc1 [Compound I-57, N2-(4-Aminosulfonylphenyl)-N4-(4-cyanomethoxyphenyl-5)-methyl-2,4-pyrimidinediamine]	7.67	–	7.27
Cc1cc(Nc2nc(Nc3ccc(F)c(S(N)(=O)=O)c3)ncc2F)cc(C)c1OCC#N [Compound I-35, N2-(3-Aminosulfonyl-4-fluoro)phenyl-N4-(4-cyanomethoxy-3,5-dimethyl)phenyl-5-fluoro-2,4-pyrimidinediamine]	7.33	–	5.95
Cc1cc(Nc2nc(Nc3ccc(C)c(S(N)(=O)=O)c3)ncc2F)ccc1OCC(N)=O [Compound I-95, N4-(4-Aminocarbonylmethoxy-3-methyl)phenyl-N2-(3-aminosulfonyl-4-methyl)phenyl-5-fluoro-2,4-pyrimidinediamine]	6.93	–	6.49
Cc1cc(Nc2nc(Nc3cccc(S(N)(=O)=O)c3)ncc2F)ccc1OC(C)C#N (racemic) [Compound I-61, Racemic N2-(3-Aminosulfonyl)phenyl-N4-[4-(1-cyano)ethoxy-3-methyl]phenyl-5-fluoro-2,4-pyrimidinediamine]	7.34	–	6.91
CC(C)(C#N)Oc1ccc(Nc2nc(Nc3ccc(S(N)(=O)=O)cc3)ncc2F)cc1 [Compound I-75, N2-(4-Aminosulfonyl)phenyl-N4-[4-(1-cyano-1-methyl)ethoxy]phenyl-5-fluoro-2,4-pyrimidinediamine]	6.70	–	5.48
Cc1cc(Nc2nc(Nc3ccc(S(N)(=O)=O)cc3)ncc2F)cc(C)c1OC(C)C#N (racemic) [Compound I-63, Racemic N2-(4-Aminosulfonyl)phenyl-N4-[4-(1-cyano)ethoxy-3,5-dimethyl]phenyl-5-fluoro-2,4-pyrimidinediamine]	6.77	–	5.88
CNS(=O)(=O)c1cc(Nc2ncc(F)c(NCCc3ccc(-c4ccncc4)cc3)n2)ccc1C [III-78, 5-Fluoro-N2-[3-N-(methyl)aminosulfonyl-4-methylphenyl]-N4-[4-(4-pyridinyl)phenethyl]-2,4-pyrimidinediamine]	6.56	–	6.69
CC(C#N)Oc1ccc(Nc2nc(Nc3ccc(S(N)(=O)=O)cc3)ncc2F)cc1 (racemic) [Compound I-66, Racemic N2-(4-Aminosulfonyl)phenyl-N4-[4-(1-cyano)ethoxy]phenyl-5-fluoro-2,4-pyrimidinediamine]	6.99	–	6.54
CNS(=O)(=O)c1cc(Nc2ncc(F)c(Nc3ccc(Cc4ccncc4)cc3)n2)ccc1C [III-75, 5-Fluoro-N2-[3-(N-methylaminosulfony)-4-methylphenyl]-5-fluoro-N4-[4-(4-pyridinylmethyl)phenyl]-2,4-pyrimidinediamine]	6.77	–	6.66
Cc1ccc(Nc2ncc(F)c(Nc3ccc(OCC#N)c(Cl)c3)n2)cc1S(N)(=O)=O [Compound I-43, N2-(3-Aminosulfonyl-4-methylphenyl)-N4-(3-chloro-4-cyanomethoxypheny)-5-fluoro-2,4-pyrimidinediamine]	7.74	–	6.74
CC(C)(C#N)Oc1ccc(Nc2nc(Nc3ccc(F)c(S(N)(=O)=O)c3)ncc2F)cc1 [Compound I-74, N2-(3-Aminosulfonyl-4-fluoro)phenyl-N4-[4-(1-cyano-1-methyl)ethoxy]phenyl-5-fluoro-2,4-pyrimidinediamine]	6.61	–	5.82
Cc1ccc(Nc2ncc(F)c(Nc3ccc(Cn4ccnc4)cc3)n2)cc1S(N)(=O)=O [III-82, N2-(3-Aminosulfonyl-4-methylphenyl)-5-fluoro-N4-[4-(1-imidazolylmethyl)phenyl]-2,4-pyrimidinediamine]	6.90	–	6.80

The next lines start with results.

pIC50 [1]	pIC50 ([1]; sodium salt)	SMILES	pIC50 (Primary human T-cells)
7.00	–	CC(C)(C#N)Oc1ccc(Nc2nc(Nc3cccc(S(N)(=O)=O)c3)ncc2F)cc1 [Compound I-76, N2-(3-Aminosulfonyl)phenyl-N4-[4-(1-cyano-1-methyl)ethoxy]phenyl-5-fluoro-2,4-pyrimidinediamine]	6.71
6.92	–	Cc1ccc(Nc2ncc(F)c(Nc3ccc(OC(C)(C)C#N)cc3)n2)cc1S(N)(=O)=O [Compound I-73, N2-(3-Aminosulfonyl-4-methyl)phenyl-N4-[4-(1-cyano-1-methyl)ethoxy]phenyl-5-fluoro-2,4-pyrimidinediamine]	6.14
7.31	–	N#CCOc1cccc(Nc2nc(Nc3cccc(S(N)(=O)=O)c3)ncc2F)c1 [Compound I-4, N2-(3-Aminosulfonyl)phenyl-N4-(3-cyanomethoxy)phenyl-5-fluoro-2,4-pyrimidinediamine]	6.75
7.21	–	COc1cc(Nc2ncc(F)c(Nc3ccc(OC(C)C#N)cc3)n2)ccc1S(N)(=O)=O (racemic) [Compound I-70, Racemic N2-(4-Aminosulfonyl-3-methoxy)phenyl-N4-[4-(1-cyano)ethoxy]phenyl-5-fluoro-2,4-pyrimidinediamine]	6.24
6.40	–	Cc1ccc(Nc2ncc(F)c(Nc3cccc(OCC(N)=O)c3)n2)cc1S(N)(=O)=O [Compound I-90, N4-(3-Aminocarbonylmethoxy)phenyl-N2-(3-aminosulfonyl-4-methyl)phenyl-5-fluoro-2,4-pyrimidinediamine]	5.66
6.30	–	Cc1ccc(Nc2ncc(F)c(Nc3ccc(OCC#N)cc3)n2)cc1S(=O)(=O)NC(=O)C(C)C [Compound I-37, N4-(4-Cyanomethyleneoxy)phenyl-5-fluoro-N2-(3-isobutyrylaminosulfonyl-4-methyl)phenyl-2,4-pyrimidinediamine]	5.43
–	6.32	CCC(=O)NS(=O)(=O)c1cccc(Nc2ncc(F)c(Nc3ccc(OCc4nc(C)no4)cc3)n2)c1 [Compound I-273]	6.71
6.73	–	CC(C#N)Oc1ccc(Nc2nc(Nc3ccc(F)c(S(N)(=O)=O)c3)ncc2F)cc1 (racemic) [Compound I-68, Racemic N2-(3-Aminosulfonyl-4-fluoro)phenyl-N4-[4-(1-cyano)ethoxy]phenyl-5-fluoro-2,4-pyrimidinediamine]	6.32
6.46	–	Cc1ccc(Nc2ncc(F)c(Nc3ccc(OCC(N)=O)cc3)n2)cc1S(N)(=O)=O [Compound I-94, N4-(4-Aminocarbonylmethoxy)phenyl-N2-(3-aminosulfonyl-4-methyl)phenyl-5-fluoro-2,4-pyrimidinediamine]	6.25
6.74	–	NS(=O)(=O)c1cccc(Nc2ncc(F)c(Nc3ccc(Cn4ccnc4)cc3)n2)c1 [III-81, N2-(3-Aminosulfonylphenyl)-5-fluoro-N4-[4-(1-imidazolylmethyl)phenyl]-2,4-pyrimidinediamine]	6.69
7.02	–	CC(C#N)Oc1ccc(Nc2nc(Nc3cccc(S(N)(=O)=O)c3)ncc2F)cc1 (racemic) [Compound I-65, Racemic N2-(3-Aminosulfonyl)phenyl-N4-[4-(1-cyano)ethoxy]phenyl-5-fluoro-2,4-pyrimidinediamine]	7.33
